Patent US20190328819A1 (priority 2016, published 2019)
“And” between values parts separate entries of the source, which are not always exact repeats. Identical values can stand only once.

Legend:
human dermal fibroblasts [1] = test: Exposure to Cd(II), fibroblast survival; type: cell-based
human dermal fibroblasts [2] = test: Exposure to As(III) (sodium arsenite), fibroblast survival; type: cell-based; settings: 9 mM sodium arsenite, 24 hours, no EDA
Description: Deschampsia antarctica extract (EDA): In experiments with fibroblasts, lyophilized EDA batch 051214 was used. The product was dissolved in a complete DMEM medium at a concentration of 5 mg/ml, stirred in a magnetic stirrer for 30 minutes and filtered through a 0.2 μm sterile cellulose acetate filter (Minisart, Sartorius).
As(III): sodium arsenite (NaAsO2) at a final concentration of 9 mM was dissolved in phenol red-free DMEM medium and filtered through a 0.2 μm sterile cellulose acetate filter (Minisart, Sartorius).
The cells used were human dermal fibroblasts isolated from the outer area of the retroauricular flap obtained from different healthy voluntary donors and preserved in liquid N2. The experiments used cells grown in culture flasks containing DMEM supplemented with 2 mM glutamine, […], 10% fetal bovine serum, in a Heraeus oven with an atmosphere of 7% CO2 and 93% humidified air at 37° C., until reaching about 90% of confluence, after which a new pass was performed by means of trypsinization. […]
The plates were washed twice with Hank's. […] It was carefully stirred in a plate stirrer and the absorbance at 550 nm was read in a BMG Fluostar Optima spectrophotometer.

SMILES: [Cl][Cd][Cl] [Cd, cadmium chloride]
- Survival % (human dermal fibroblasts [1]; 3 μM Cd, 24 hours, no EDA): 54.9%
- Survival x (human dermal fibroblasts [1]; 3 μM Cd, 24 hours, no EDA): 0.188 u abs
- mortality (human dermal fibroblasts [1]; Cd(II) at 3 μM (FIG. 7)): about 50%

SMILES: O=[As]O [sodium arsenite]
- Survival % (vs CC) (human dermal fibroblasts [2]): 42.0% and 54.6% and 46.4%
- Survival x (human dermal fibroblasts [2]): 0.209 u abs and 0.206 u abs and 0.334 u abs
